Source: PubChem BioAssay (NCI)
Several values for one entry are separate records, joined by “and”; a condition that tells them apart may be missing. Equal values may be shown once.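 Grown in 96-well plates, cells were treated for 48 hours with each compound at five concentrations. Insufficient inhibition: endpoint recorded as highest concentration tested. GI50 = concentration required for 50% inhibition of growth. TGI denotes the concentration required for complete inhibition of growth.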

Each compound was assayed on UO-31 renal (assay: NCI tumour cell line growth inhibition, 48 h).

Compound	GI50 [µM]	TGI [µM]
CC1=C(C(=O)Nc2ccc(F)c(Cl)c2)C(c2ccc(Cl)cc2)NC(=O)N1 (stereo not given)	15.1	30.1
CN(C)CCCNC1=C(Cl)C(=O)c2ccccc2C1=O	12.4	27
O=C(Nc1ccc(F)cc1F)c1cc(I)ccc1O	1.63	6.11
CCOc1ccccc1-n1c(CN2CCN(C(=O)COc3ccc(CNCCCCCCN4C5CCCC4CC(OC(=O)Nc4cc(C)ccc4OC)C5)cc3)CC2)nc2ccccc2c1=O (stereo not given)	4.07	8.15
C/C(CCn1[nH]c(=O)ccc1=O)=N\O	–	> 100
COc1ccccc1NC(=O)CC(=O)n1nc(C)c(N=Nc2ccccc2C(=O)O)c1C	–	> 100
CC(=O)N1[C@H](C(=O)O)CS[C@H]1c1ccncc1	–	> 100
CC1(C)COC(c2ccc(C(F)(F)F)cc2C(O)c2ccc3ccccc3c2)=N1 (stereo not given)	> 100	> 100
COc1ccc(NC(=O)c2cc(OC)cc(OC)c2)cc1	–	> 100
CC1(C)OC(=O)C(=Cc2ccc(O)cc2)C(=O)O1	–	> 100
COc1ccc(/C=C\c2cc(OC)c3c(c2)OCO3)c(O)c1O	–	12
CC(=O)OC1COC(n2c(=S)n(-c3ccc(C)cc3)c(=O)c3ccccc32)C(OC(C)=O)C1OC(C)=O (stereo not given)	–	> 100
CC[C@@]12CCCN3CC[C@]4(c5cccc(OC)c5N(C(C)=O)[C@@H]4CC1)[C@H]32	–	> 100
CSc1ccccc1C#C/C=C\C#Cc1ccccc1N1CCCC1=O	–	> 50
NC1CCC(Nc2nc(NCc3ccc(-c4ccco4)nc3)c3ncn(C4CCCC4)c3n2)CC1 (stereo not given)	0.17	0.747
O=C(CCl)N1c2ccccc2Oc2ccc3ccccc3c21	1.17	2.53
CCCCCCCCSC1=CC(=O)c2nc3ccccc3c3ccnc1c23	49.5	> 100
Cc1ccc(-c2nnc(-c3ccc4ccccc4c3)o2)cc1	–	> 100
COc1ccc(-c2cc(-c3ccc(Nc4nc(Nc5ccccc5)nc(Nc5ccc(Cl)cc5)n4)cc3)nc(N)c2C#N)cc1	0.72	1.49
O=c1n(CC2CO2)c(=O)n(CC2CO2)n1CC1CO1 (stereo not given)	7.86	> 76.2
O=C1C2=C(SCCS2)C(=O)c2ccccc21	–	3.37

The compounds below were run on A498 renal (assay: NCI tumour cell line growth inhibition, 48 h).

Compound	TGI [µM]	GI50 [µM]
O=C1c2ccccc2C(=O)c2sc(Nc3cccc(Cl)c3)nc21	12.6	–
CC1=C(C(=O)Nc2ccc(F)c(Cl)c2)C(c2ccc(Cl)cc2)NC(=O)N1 (stereo not given)	29	13.9
CN(C)CCCNC1=C(Cl)C(=O)c2ccccc2C1=O	25.4	12.7
O=C(Nc1ccc(F)cc1F)c1cc(I)ccc1O	3.31	1.45
CCOc1ccccc1-n1c(CN2CCN(C(=O)COc3ccc(CNCCCCCCN4C5CCCC4CC(OC(=O)Nc4cc(C)ccc4OC)C5)cc3)CC2)nc2ccccc2c1=O (stereo not given)	4.64	2.11
C/C(CCn1[nH]c(=O)ccc1=O)=N\O	> 100	–
COc1ccccc1NC(=O)CC(=O)n1nc(C)c(N=Nc2ccccc2C(=O)O)c1C	> 100	–
CC(=O)N1[C@H](C(=O)O)CS[C@H]1c1ccncc1	> 100	–
CC1(C)COC(c2ccc(C(F)(F)F)cc2C(O)c2ccc3ccccc3c2)=N1 (stereo not given)	> 100	> 100
COc1ccc(NC(=O)c2cc(OC)cc(OC)c2)cc1	> 100	–
CC1(C)OC(=O)C(=Cc2ccc(O)cc2)C(=O)O1	> 100	–
COc1ccc(/C=C\c2cc(OC)c3c(c2)OCO3)c(O)c1O	31.2	–
CC(=O)OC1COC(n2c(=S)n(-c3ccc(C)cc3)c(=O)c3ccccc32)C(OC(C)=O)C1OC(C)=O (stereo not given)	> 100	–
CC[C@@]12CCCN3CC[C@]4(c5cccc(OC)c5N(C(C)=O)[C@@H]4CC1)[C@H]32	> 100	–
CSc1ccccc1C#C/C=C\C#Cc1ccccc1N1CCCC1=O	> 50	> 50
NC1CCC(Nc2nc(NCc3ccc(-c4ccco4)nc3)c3ncn(C4CCCC4)c3n2)CC1 (stereo not given)	0.0941	0.0311
O=C(CCl)N1c2ccccc2Oc2ccc3ccccc3c21	6.97	2.44
CCCCCCCCSC1=CC(=O)c2nc3ccccc3c3ccnc1c23	> 100	> 100
Cc1ccc(-c2nnc(-c3ccc4ccccc4c3)o2)cc1	> 100	–
COc1ccc(-c2cc(-c3ccc(Nc4nc(Nc5ccccc5)nc(Nc5ccc(Cl)cc5)n4)cc3)nc(N)c2C#N)cc1	11.1	2.49
O=c1n(CC2CO2)c(=O)n(CC2CO2)n1CC1CO1 (stereo not given)	29.9	14.1
O=C1C2=C(SCCS2)C(=O)c2ccccc21	3.65	–

Each compound was assayed on HOP-62 NSCLC (assay: NCI tumour cell line growth inhibition, 48 h).

Compound	TGI [µM]	GI50 [µM]
O=C1c2ccccc2C(=O)c2sc(Nc3cccc(Cl)c3)nc21	3.19	–
CC1=C(C(=O)Nc2ccc(F)c(Cl)c2)C(c2ccc(Cl)cc2)NC(=O)N1 (stereo not given)	30.8	15.5
CN(C)CCCNC1=C(Cl)C(=O)c2ccccc2C1=O	17.5	6.23
O=C(Nc1ccc(F)cc1F)c1cc(I)ccc1O	7.87	2.42
CCOc1ccccc1-n1c(CN2CCN(C(=O)COc3ccc(CNCCCCCCN4C5CCCC4CC(OC(=O)Nc4cc(C)ccc4OC)C5)cc3)CC2)nc2ccccc2c1=O (stereo not given)	3.25	1.7
C/C(CCn1[nH]c(=O)ccc1=O)=N\O	> 100	–
COc1ccccc1NC(=O)CC(=O)n1nc(C)c(N=Nc2ccccc2C(=O)O)c1C	> 100	–
CC(=O)N1[C@H](C(=O)O)CS[C@H]1c1ccncc1	> 100	–
CC1(C)COC(c2ccc(C(F)(F)F)cc2C(O)c2ccc3ccccc3c2)=N1 (stereo not given)	> 100	> 100
COc1ccc(NC(=O)c2cc(OC)cc(OC)c2)cc1	> 100	–
CC1(C)OC(=O)C(=Cc2ccc(O)cc2)C(=O)O1	> 100	–
COc1ccc(/C=C\c2cc(OC)c3c(c2)OCO3)c(O)c1O	64.5	–
CC(=O)OC1COC(n2c(=S)n(-c3ccc(C)cc3)c(=O)c3ccccc32)C(OC(C)=O)C1OC(C)=O (stereo not given)	> 100	–
CC[C@@]12CCCN3CC[C@]4(c5cccc(OC)c5N(C(C)=O)[C@@H]4CC1)[C@H]32	> 100	–
CSc1ccccc1C#C/C=C\C#Cc1ccccc1N1CCCC1=O	> 50	> 15.8
NC1CCC(Nc2nc(NCc3ccc(-c4ccco4)nc3)c3ncn(C4CCCC4)c3n2)CC1 (stereo not given)	0.0806	0.0238
O=C(CCl)N1c2ccccc2Oc2ccc3ccccc3c21	3.25	1.81
CCCCCCCCSC1=CC(=O)c2nc3ccccc3c3ccnc1c23	> 100	> 100
Cc1ccc(-c2nnc(-c3ccc4ccccc4c3)o2)cc1	> 77.4	–
COc1ccc(-c2cc(-c3ccc(Nc4nc(Nc5ccccc5)nc(Nc5ccc(Cl)cc5)n4)cc3)nc(N)c2C#N)cc1	8.98	1.93
O=c1n(CC2CO2)c(=O)n(CC2CO2)n1CC1CO1 (stereo not given)	> 35.5	4.7
O=C1C2=C(SCCS2)C(=O)c2ccccc21	2.9	–

Each compound was assayed on HT29 colon (assay: NCI tumour cell line growth inhibition, 48 h).

Compound	TGI [µM]	GI50 [µM]
O=C1c2ccccc2C(=O)c2sc(Nc3cccc(Cl)c3)nc21	8.36	–
CC1=C(C(=O)Nc2ccc(F)c(Cl)c2)C(c2ccc(Cl)cc2)NC(=O)N1 (stereo not given)	27.8	14.3
CN(C)CCCNC1=C(Cl)C(=O)c2ccccc2C1=O	5.25	2.5
O=C(Nc1ccc(F)cc1F)c1cc(I)ccc1O	> 100	4.06
CCOc1ccccc1-n1c(CN2CCN(C(=O)COc3ccc(CNCCCCCCN4C5CCCC4CC(OC(=O)Nc4cc(C)ccc4OC)C5)cc3)CC2)nc2ccccc2c1=O (stereo not given)	2.05	0.798
C/C(CCn1[nH]c(=O)ccc1=O)=N\O	> 100	–
COc1ccccc1NC(=O)CC(=O)n1nc(C)c(N=Nc2ccccc2C(=O)O)c1C	> 100	–
CC(=O)N1[C@H](C(=O)O)CS[C@H]1c1ccncc1	> 100	–
CC1(C)COC(c2ccc(C(F)(F)F)cc2C(O)c2ccc3ccccc3c2)=N1 (stereo not given)	> 10	–
COc1ccc(NC(=O)c2cc(OC)cc(OC)c2)cc1	> 100	–
CC1(C)OC(=O)C(=Cc2ccc(O)cc2)C(=O)O1	> 100	–
COc1ccc(/C=C\c2cc(OC)c3c(c2)OCO3)c(O)c1O	47.2	–
CC(=O)OC1COC(n2c(=S)n(-c3ccc(C)cc3)c(=O)c3ccccc32)C(OC(C)=O)C1OC(C)=O (stereo not given)	> 100	–
CC[C@@]12CCCN3CC[C@]4(c5cccc(OC)c5N(C(C)=O)[C@@H]4CC1)[C@H]32	44	–
CSc1ccccc1C#C/C=C\C#Cc1ccccc1N1CCCC1=O	> 50	> 10.4
NC1CCC(Nc2nc(NCc3ccc(-c4ccco4)nc3)c3ncn(C4CCCC4)c3n2)CC1 (stereo not given)	–	0.00801
O=C(CCl)N1c2ccccc2Oc2ccc3ccccc3c21	1.51	0.432
CCCCCCCCSC1=CC(=O)c2nc3ccccc3c3ccnc1c23	> 100	> 100
Cc1ccc(-c2nnc(-c3ccc4ccccc4c3)o2)cc1	> 100	–
COc1ccc(-c2cc(-c3ccc(Nc4nc(Nc5ccccc5)nc(Nc5ccc(Cl)cc5)n4)cc3)nc(N)c2C#N)cc1	2.96	1.1
O=c1n(CC2CO2)c(=O)n(CC2CO2)n1CC1CO1 (stereo not given)	> 100	19.3
O=C1C2=C(SCCS2)C(=O)c2ccccc21	4.44	–

What follows are compounds tested on SF-268 CNS (assay: NCI tumour cell line growth inhibition, 48 h).

Compound	TGI	GI50 [µM]
O=C1c2ccccc2C(=O)c2sc(Nc3cccc(Cl)c3)nc21	4.69 µM	–
CC1=C(C(=O)Nc2ccc(F)c(Cl)c2)C(c2ccc(Cl)cc2)NC(=O)N1 (stereo not given)	73.4 µM	22.1
CN(C)CCCNC1=C(Cl)C(=O)c2ccccc2C1=O	–	4.88
O=C(Nc1ccc(F)cc1F)c1cc(I)ccc1O	47.4 µM	3
CCOc1ccccc1-n1c(CN2CCN(C(=O)COc3ccc(CNCCCCCCN4C5CCCC4CC(OC(=O)Nc4cc(C)ccc4OC)C5)cc3)CC2)nc2ccccc2c1=O (stereo not given)	2.99 µM	1.44
C/C(CCn1[nH]c(=O)ccc1=O)=N\O	> 100 µM	–
COc1ccccc1NC(=O)CC(=O)n1nc(C)c(N=Nc2ccccc2C(=O)O)c1C	> 100 µM	–
CC(=O)N1[C@H](C(=O)O)CS[C@H]1c1ccncc1	> 100 µM	–
CC1(C)COC(c2ccc(C(F)(F)F)cc2C(O)c2ccc3ccccc3c2)=N1 (stereo not given)	> 100 µM	> 10
COc1ccc(NC(=O)c2cc(OC)cc(OC)c2)cc1	> 100 µM	–
CC1(C)OC(=O)C(=Cc2ccc(O)cc2)C(=O)O1	> 100 µM	–
COc1ccc(/C=C\c2cc(OC)c3c(c2)OCO3)c(O)c1O	18.8 µM	–
CC(=O)OC1COC(n2c(=S)n(-c3ccc(C)cc3)c(=O)c3ccccc32)C(OC(C)=O)C1OC(C)=O (stereo not given)	> 100 µM	–
CC[C@@]12CCCN3CC[C@]4(c5cccc(OC)c5N(C(C)=O)[C@@H]4CC1)[C@H]32	> 100 µM	–
CSc1ccccc1C#C/C=C\C#Cc1ccccc1N1CCCC1=O	> 50 µM	> 10.2
NC1CCC(Nc2nc(NCc3ccc(-c4ccco4)nc3)c3ncn(C4CCCC4)c3n2)CC1 (stereo not given)	0.169 µM and 1.3 µM	0.011
O=C(CCl)N1c2ccccc2Oc2ccc3ccccc3c21	2.94 µM	1.52
CCCCCCCCSC1=CC(=O)c2nc3ccccc3c3ccnc1c23	> 100 µM	24.7
Cc1ccc(-c2nnc(-c3ccc4ccccc4c3)o2)cc1	> 100 µM	–
COc1ccc(-c2cc(-c3ccc(Nc4nc(Nc5ccccc5)nc(Nc5ccc(Cl)cc5)n4)cc3)nc(N)c2C#N)cc1	2.49 µM	1.04
O=c1n(CC2CO2)c(=O)n(CC2CO2)n1CC1CO1 (stereo not given)	> 100 µM	15.7
O=C1C2=C(SCCS2)C(=O)c2ccccc21	3.05 µM	–
